Consider 25 compounds from patent US9133224B2, “Macrocyclic kinase inhibitors” (OSI Pharmaceuticals, LLC, priority 2010, dated 2015).

Like-named read-outs stand apart in the source and are kept apart here. Where only a bound is given, the exact number is not on record here.

Assay [1] has as its target T1, GST-tagged full-length FAK enzyme (PTK2) (Homo sapiens, UniProt Q05397).
T1 construct: GST-tagged full-length FAK enzyme (PTK2, Invitrogen PV4085); GST; purchased Invitrogen PV4085
The assay can be described thus: Biochemical Omnia Assay (FAK). The protocol:
Biochemical Omnia Assay Protocol
The Omnia Assay (Invitrogen) has been optimized for GST-tagged full-length FAK enzyme (PTK2, Invitrogen PV4085).
All compound concentrations were assayed in duplicate. Initial compound dilutions were prepared at 100× concentration in 100% DMSO from a 10 mM stock solution. Compounds were further diluted 1:25 in assay buffer resulting in a 4× concentrated solution.
In running the assay, 5 μL of the above 4× concentrated compound solution (or 4% DMSO for positive controls) was added to the assay plate followed by 5 μL of a solution containing peptide (40 μM) and ATP (200 μM) in assay buffer. The reaction was initiated by the addition of 10 μL of FAK (50 nM) in assay buffer, or assay buffer alone for negative controls. The increase in fluorescence due to peptide phosphorylation was monitored continuously as a function of time using a Spectramax M5 plate reader (Molecular Devices) equipped with SoftMax Pro 5.2 software.
IC50 values were determined from the slopes of the linear progress curves by non-linear curve-fitting using GraphPad Prism 5 (GraphPad Software, Inc.).

The next assay has as its target T2, FAK (Homo sapiens, UniProt Q05397).
T2 construct: endogenous in cells; host or cells: U87MG glioblastoma cells (ATCC HTB-14)
The assay can be described thus: Cell-based capture ELISA for inhibition of FAK autophosphorylation [pY397] in U87MG cells. The procedure:
Cell-Based Assays for Inhibition of FAK Autophosphorylation: MiaPaCa2 and U87MG
The ability of compounds to inhibit FAK autophosphorylation was determined in a cell-based capture ELISA assay using U87MG glioblastoma cells (ATCC, Cat # HTB-14) and the FAK [pY397]ELISA kit from Invitrogen (KHO0441). The assay determines the ability of compounds to block endogenous autophosphorylation of FAK stimulated by fibronectin. Cells plated on fibronectin coated 96-well plate were incubated with compounds at various concentrations in the complete growth medium for 2 h. Cell lysates were then prepared and FAK protein was captured onto a FAK antibody-coated 96-well ELISA plate. The phosphotyrosine content of FAK protein was then monitored by quantitation of degree of binding of an antibody that recognizes only the phosphorylated FAK at Y397 within the captured protein.
Reagents Provided in Biosource FAK [pY397]
Cultures of U87MG cells growing in MEM (Earles) containing non-essential amino acids, sodium pyruvate (1 mM), […] (1%) and 10% fetal bovine serum were detached by trypsin-EDTA and suspended in cell growth medium. Cells were then plated onto fibronectin (600 ng/well)-coated 96-well flat bottom plates at 1.7×10^4 cells per well in 60 uL cell growth medium and incubated overnight at 37° C. in a CO2 incubator.
Compound dilutions were prepared from 10 mM DMSO stocks by dilution in cell growth medium, the final concentration of DMSO in the assay being 0.6%. […] The cells were then incubated with compounds at 37° C. for 2 h. The medium was removed by aspiration and cells were lysed by addition of 20 uL of ice-cold cell lysis buffer per well. The plates were kept on ice for 20 min and 50 uL of standard diluent was added to each well. 50 uL of cell lysate from each well was transferred to respective wells in an assay plate and 50 uL of detection antibody was added to all wells except H1-H6 which were no antibody control wells. Capture assay plates were incubated overnight in a cold room.
Following incubation of the cell lysates and detection antibodies in the ELISA plate, the wells were washed 4 times with 120 uL of wash buffer (1×), then 100 uL of diluted HRP conjugated antibody (1:100 dil in diluent) was added to each well, and the plate was incubated at RT for 30 min. The wells were then washed for 4 times with 120 uL of wash buffer (1×) and 100 uL of chromogen was added to each well and incubated in the dark at RT for 5-10 min. 100 uL of stop solution was added to each well and the absorbance measured at 450 nm, 0.1 s.
Comparison of the assay signals obtained in the presence of compound with those of positive and negative controls (cells with no compound and no detection antibody being added), allows degree of inhibition of phospho-FAK [Y397] to be determined over a range of compound concentrations. […] The assay as described above was modified to determine the effect of inclusion of 50% (v/v) mouse or human plasma. In this assay, the compound plate was prepared as 2× concentration in 100 uL of 100% mouse or human plasma, and 60 uL of this was added to 60 uL of culture medium and incubated at 37° C. incubator for 2 h. The rest of the assay was carried out as described above.
(In general: An ELISA detects its analyte on a solid surface through an enzyme-linked reagent.)

Where [2] appears, read: 50% (v/v) human plasma, mean IC50, read-out: FAK Activity Mechanistic (U87MG) HP.
Where [3] appears, read: no plasma present, mean IC50, read-out: FAK Activity Mechanistic (U87MG) NP.
Setting [4] is: mean IC50, [ATP] = 50uM, read-out: FAK Activity Biochemical OMNIA, [ATP] = 50uM.
[5] abbreviates: 50% (v/v) mouse plasma, mean IC50, read-out: FAK Activity Mechanistic (U87MG) MP.

T1 sequence (Q05397 whole entry): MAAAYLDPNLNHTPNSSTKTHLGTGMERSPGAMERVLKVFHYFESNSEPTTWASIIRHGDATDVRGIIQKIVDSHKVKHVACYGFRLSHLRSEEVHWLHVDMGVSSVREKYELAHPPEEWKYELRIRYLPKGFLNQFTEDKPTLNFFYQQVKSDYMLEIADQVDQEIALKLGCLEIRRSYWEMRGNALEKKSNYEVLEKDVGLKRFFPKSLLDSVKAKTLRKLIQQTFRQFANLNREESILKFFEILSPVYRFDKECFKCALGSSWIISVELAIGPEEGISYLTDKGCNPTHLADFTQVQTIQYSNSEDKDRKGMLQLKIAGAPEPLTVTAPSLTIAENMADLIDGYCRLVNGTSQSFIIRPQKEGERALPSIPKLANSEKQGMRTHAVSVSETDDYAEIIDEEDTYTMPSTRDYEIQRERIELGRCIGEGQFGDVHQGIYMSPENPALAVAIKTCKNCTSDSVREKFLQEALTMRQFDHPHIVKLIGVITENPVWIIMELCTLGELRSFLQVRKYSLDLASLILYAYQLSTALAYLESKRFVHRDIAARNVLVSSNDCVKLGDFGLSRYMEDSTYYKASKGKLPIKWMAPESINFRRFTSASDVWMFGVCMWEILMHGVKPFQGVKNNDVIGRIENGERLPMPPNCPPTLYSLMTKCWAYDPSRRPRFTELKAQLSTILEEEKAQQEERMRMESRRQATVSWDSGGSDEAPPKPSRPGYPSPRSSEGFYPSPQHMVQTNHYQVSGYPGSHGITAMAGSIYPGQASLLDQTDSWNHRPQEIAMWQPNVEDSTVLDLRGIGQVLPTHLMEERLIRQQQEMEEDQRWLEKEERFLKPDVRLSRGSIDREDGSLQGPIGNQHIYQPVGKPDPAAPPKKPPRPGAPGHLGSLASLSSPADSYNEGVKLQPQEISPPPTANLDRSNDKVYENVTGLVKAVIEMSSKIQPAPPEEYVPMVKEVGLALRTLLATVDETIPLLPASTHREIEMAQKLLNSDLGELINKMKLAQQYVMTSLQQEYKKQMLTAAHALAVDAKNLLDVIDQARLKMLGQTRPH
T2 sequence (Q05397 whole entry): as above

With `CCOP1(=O)Cc2ccc(c(OC)c2)Nc2ncc(C(F)(F)F)c(n2)Nc2ccc(c3c2C(=O)N(C)C3)-c2cnn(c2)C[C@H](O)CO1` (mixture of isomers) [Example 5], the IC50 (in assay [1]; on FAK (setting [2]); at FAK (setting [3])) was less than 0.4 µM in each case.
In the case of `CCO[P@@]1(=O)Cc2ccc(c(OC)c2)Nc2ncc(C(F)(F)F)c(n2)Nc2cc(F)c(cc2C(=O)NC)-c2cnn(c2)CCCO1.CCO[P@]1(=O)Cc2ccc(c(OC)c2)Nc2ncc(C(F)(F)F)c(n2)Nc2cc(F)c(cc2C(=O)NC)-c2cnn(c2)CCCO1` (mixture of isomers) [Example 7], the IC50 (in assay [1] (setting [4]); on FAK (setting [2]); at FAK (setting [5]); at FAK (setting [3])) was less than 0.4 µM throughout.
Turning to `CCOP1(=O)Cc2ccc(c(OC)c2)Nc2ncc(C(F)(F)F)c(n2)Nc2ccc(nc2C(=O)NC)-c2cnn(c2)CC(C)CO1` (mixture of isomers) [Example 19], the IC50 (in assay [1] (setting [4]); on FAK (setting [2]); on FAK (setting [3])) was less than 0.4 µM throughout.
On to `CCOP1(=O)Cc2ccc(cc2)Nc2ncc(C(F)(F)F)c(n2)Nc2ccc(nc2C(=O)NC)-c2cnn(c2)CC(C)CO1` (mixture of isomers) [Example 21], for which the IC50 (in assay [1] (setting [4]); at FAK (setting [2]); at FAK (setting [3])) was less than 0.4 µM in each case.
In the case of `CCOP1(=O)Cc2ccc(c(OC)c2)Nc2ncc(C(F)(F)F)c(n2)Nc2ccc(nc2C(=O)NC)-c2cnn(c2)CC[C@@H](C)O1` (mixture of isomers) [Example 69], the IC50 at FAK (setting [2]) and at FAK (setting [3]) was less than 0.4 µM throughout.
In the case of `CCOP1(=O)Cc2ccc(c(OC)c2)Nc2ncc(C(F)(F)F)c(n2)Nc2ccc(nc2C(=O)NC)-c2cnn(c2)CC[C@H](C)O1` (mixture of isomers) [Example 70], the results for the IC50 at FAK (setting [2]), on FAK (setting [5]) and at FAK (setting [3]) were less than 0.4 µM, 0.4 to 4 µM and less than 0.4 µM, respectively.
As for `CCOP1(=O)Cc2ccc(c(OC)c2)Nc2ncc(C(F)(F)F)c(n2)Nc2ccc(c3c2C(=O)N(C)C3)-c2cnn(c2)CCCO1` (racemic) [Example 1], the IC50 (in assay [1]; at FAK (setting [2]); at FAK (setting [3])) was less than 0.4 µM each time.
In the case of `CCOP1(=O)Cc2ccc(cc2)Nc2ncc(C(F)(F)F)c(n2)Nc2ccc(c3c2C(=O)N(C)C3)-c2cnn(c2)CCCO1` (racemic) [Example 2], the IC50 (in assay [1]; on FAK (setting [2])) was less than 0.4 µM in each case.
For the compound `CCOP1(=O)Cc2ccc(c(OC)c2)Nc2ncc(C(F)(F)F)c(n2)Nc2ccc(cc2C(=O)NC)-c2cnn(c2)CCCO1` (racemic) [Example 4], the IC50 (in assay [1]; at FAK (setting [2]); at FAK (setting [3])) was less than 0.4 µM each time.
Take `CCOP1(=O)Cc2ccc(c(OC)c2)Nc2ncc(C(F)(F)F)c(n2)Nc2ccc(nc2C(=O)NC)-c2cnn(c2)CCCO1` (racemic) [Example 6]: the IC50 (in assay [1]; at FAK (setting [2]); on FAK (setting [3])) was less than 0.4 µM in each case.
In the case of `CCOP1(=O)Cc2ccc(cc2)Nc2ncc(C(F)(F)F)c(n2)Nc2ccc(cc2C(=O)NC)-c2cnn(c2)CCCO1` (racemic) [Example 8], the IC50 (in assay [1]; at FAK (setting [2]); at FAK (setting [3])) was less than 0.4 µM each time.
`CCNC(=O)c1cc2ccc1Nc1nc(ncc1C(F)(F)F)Nc1ccc(cc1OC)CP(=O)(OCC)OCCCn1cc-2cn1` (racemic) [Example 9]: the IC50 in assay [1] is less than 0.4 µM; at FAK (setting [2]), less than 0.4 µM; on FAK (setting [5]), 0.4 to 4 µM; at FAK (setting [3]) it was less than 0.4 µM.
For the compound `CCNC(=O)c1cc2ccc1Nc1nc(ncc1C(F)(F)F)Nc1ccc(cc1)CP(=O)(OCC)OCCCn1cc-2cn1` (racemic) [Example 10], the IC50 in assay [1] was less than 0.4 µM; at FAK (setting [2]), more than 4 µM; on FAK (setting [3]), 0.4 to 4 µM.
As to `CCOP1(=O)Cc2ccc(cc2)Nc2ncc(C(F)(F)F)c(n2)Nc2ccc(cc2C(=O)N(C)C)-c2cnn(c2)CCCO1` (racemic) [Example 11], the IC50 in assay [1] is less than 0.4 µM; at FAK (setting [2]), 0.4 to 4 µM; at FAK (setting [3]), less than 0.4 µM.
As to `CCOP1(=O)Cc2ccc(c(OC)c2)Nc2ncc(C(F)(F)F)c(n2)Nc2ccc(cc2C(=O)N(C)C)-c2cnn(c2)CCCO1` (racemic) [Example 12], the IC50 was less than 0.4 µM in assay [1] (setting [4]), 0.4 to 4 µM on FAK (setting [2]) and less than 0.4 µM at FAK (setting [3]).
For `CCOP1(=O)Cc2ccc(cc2)Nc2ncc(C(F)(F)F)c(n2)Nc2ccc(nc2C(=O)NC)-c2cnn(c2)CCCO1` (racemic) [Example 13], the IC50 (in assay [1] (setting [4]); at FAK (setting [2]); on FAK (setting [3])) was less than 0.4 µM in each case.
For the compound `CCOP1(=O)Cc2ccc(c(OC)c2)Nc2ncc(C(F)(F)F)c(n2)Nc2ccc(cc2C(=O)NC)-c2cnn(c2)CCCCO1` (racemic) [Example 14], the IC50 (in assay [1] (setting [4]); at FAK (setting [2]); at FAK (setting [3])) was less than 0.4 µM in each case.
With `CCOP1(=O)Cc2ccc(c(OC)c2)Nc2ncc(C(F)(F)F)c(n2)Nc2ccc(nc2C(=O)NC)-c2cnn(c2)CCCCO1` (racemic) [Example 15], the IC50 (in assay [1]; at FAK (setting [2]); on FAK (setting [3])) was less than 0.4 µM throughout.
On to `CCOP1(=O)Cc2ccc(c(OC)c2)Nc2ncc(C(F)(F)F)c(n2)Nc2ccc(c3c2C(=O)N(C)C3)-c2cnn(c2)CCCCO1` (racemic) [Example 17], for which the IC50 (in assay [1] (setting [4]); on FAK (setting [2]); at FAK (setting [3])) was less than 0.4 µM in each case.
`CCOP1(=O)Cc2ccc(c(F)c2)Nc2ncc(C(F)(F)F)c(n2)Nc2ccc(nc2C(=O)NC)-c2cnn(c2)CCCO1` (racemic) [Example 22]: the IC50 in assay [1] was less than 0.4 µM; on FAK (setting [2]), less than 0.4 µM; at FAK (setting [3]), 0.4 to 4 µM.
In the case of `CCOP1(=O)Cc2ccc(c(OC)c2)Nc2ncc(C(F)(F)F)c(n2)Nc2ccc(nc2C(=O)NC)-c2cnn(c2)CC2(CC2)CO1` (racemic) [Example 63], the IC50 on FAK (setting [2]) and on FAK (setting [3]) was less than 0.4 µM throughout.
In the case of `CCP1(=O)Cc2ccc(c(OC)c2)Nc2ncc(C(F)(F)F)c(n2)Nc2ccc(nc2C(=O)NC)-c2cnn(c2)CC2(CC2)CO1` (racemic) [Example 71], the IC50 at FAK (setting [2]), on FAK (setting [5]) and at FAK (setting [3]) was less than 0.4 µM each time.
Consider `CNC(=O)c1nc2ccc1Nc1nc(ncc1C(F)(F)F)Nc1ccc(cc1OC)CP(=O)(OC(C)C)OCCCn1cc-2cn1` (racemic) [Example 72], for which the IC50 on FAK (setting [2]), at FAK (setting [5]) and on FAK (setting [3]) was less than 0.4 µM throughout.
Consider `CNC(=O)c1nc2ccc1Nc1nc(ncc1C(F)(F)F)Nc1ccc(cc1OC)CP(C)(=O)OCCCn1cc-2cn1` (single isomer, unassigned) [Example 61B], for which the IC50 in assay [1] (setting [4]) was less than 0.4 µM.
Regarding `CNC(=O)c1nc2ccc1Nc1nc(ncc1C(F)(F)F)Nc1ccc(cc1OC)CP(=O)(OC(C)C)OCCCn1cc-2cn1` (single isomer, unassigned) [Example 72A], the IC50 was 0.4 to 4 µM at FAK (setting [2]), less than 0.4 µM at FAK (setting [5]) and less than 0.4 µM on FAK (setting [3]).
